According to patent publication US20150238519A1, “THERAPY FOR DRUG RESISTANT CANCER” (University of Central Florida Research Foundation, Inc., priority 2014, published 2015):

Assays:
Frabin (FGD4) = test: Western blotting of Frabin in extracts of CDX treated LNCaP-104S cells; assay type: cell-based; conditions: western blot
Text: FIG. 2. Expression of FGD4 in untreated LNCap-104R1, LNCaP-104S and LNCaP-104S cells treated with CDX and androgen withdrawal. FIG. 2 A: Western blot of the whole cell extracts. FIG. 2 B: Densitometric analysis of the expression. Data represents the average of 3 separate analyses.
Identification of targets regulated by our candidate miRNAs by MiRDB and TargetScan database search reveled a protein Frabin (FGD4), a GEF that is potentially regulated by mir-17, -21a and -106a and received higher target scores in both searches.

[1] = tested on: mir-17, mir-18a, mir-18b, mir-20a and mir-106a; test: Genome-wide miRNA array profiling of LNCaP-104S cells upon CDX treatment; assay type: cell-based; conditions: CDX (5 μM) treatment and androgen blockade (CSFBS), vs untreated LNCaP-104S
Text: We used genome-wide miRNA array (1113 unique primers System Biosciences) profiling approach to dentify specific miRNAs that compensate for androgen ablation. Androgen-dependent (AD) subline of LNCaP cells LNCaP-104S (-104S) and its androgen independent (AI) derivative LNCaP-104R1 (-104R1) were used for monitoring differential expression of miRNAs upon treatment with casodex (CDX). LNCaP-104S cells are CDX-sensitive, whereas LNCaP-104R1 cells are not despite these cells express androgen receptor (AR) at a basal level higher than LNCaP-104S cells. LNCaP-104S cells require DHT for maintaining their AD status but when treated with CDX for 3 weeks in CSFBS (charcoal-stripped FBS), CDX insensitive colonies develop that are independent of androgen (CDXR). We profiled miRNA expression in −104S cells untreated and at 1 wk and 3 wks of treatment with CDX (5 μM) and CSFBS (Table 1). We also compared miRNA expression in untreated −104R1 cells. The ΔΔCT values were obtained for each sample (treatment condition) using LNCaP-104S untreated as the control.

LNCaP-104S cells = conditions: androgen-dependent LNCaP-104S; cited from earlier work
LNCaP-104R1 cells = conditions: androgen independent LNCaP-104R1; cited from earlier work

For `CC(O)(CS(=O)(=O)c1ccc(F)cc1)C(=O)Nc1ccc(C#N)c(C(F)(F)F)c1` (stereo not shown) [CDX], the “increase in expression of Frabin” value (Frabin (FGD4)) is given as greater than 2.0 fold, the “down regulation of mir-17, mir-18a, mir-18b, mir-20a and mir-106a” value [1] is given as 9-10 fold and the CDX sensitivity (LNCaP-104S cells) is given as “CDX-sensitive”. The CDX sensitivity (LNCaP-104R1 cells) was “are not”.
